Experiments:
PPARγ = conditions: as compared to rosiglitazone; cited from earlier work
rodents = conditions: cited from earlier work
[1] = system: cultured cells (adipocyte differentiation); conditions: cultured cells treated with compound; cited from earlier work
T2DM patients = conditions: cited from earlier work
[2] = molecular target: T1, human GAL4-PPARγ-Hinge-LBD (Homo sapiens, UniProt P37231); experiment: Transactivation assay; type: cell-based; conditions: HEK293T cells, GAL4-PPARγ-Hinge-LBD / UAS-luciferase, 18 h incubation, doses 169 pM to 10 μM
T1 sequence (P37231 238-503 limits assumed): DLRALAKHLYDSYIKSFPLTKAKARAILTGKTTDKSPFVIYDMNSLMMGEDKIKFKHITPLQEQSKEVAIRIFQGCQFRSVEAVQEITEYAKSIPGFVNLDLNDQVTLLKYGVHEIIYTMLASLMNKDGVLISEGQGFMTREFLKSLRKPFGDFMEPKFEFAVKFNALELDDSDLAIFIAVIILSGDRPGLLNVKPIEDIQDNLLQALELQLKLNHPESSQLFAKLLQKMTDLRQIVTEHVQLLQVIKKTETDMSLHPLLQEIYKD

Compound: O=S(=O)(Nc1cc(Cl)c(Oc2cnc3ccccc3c2)c(Cl)c1)c1ccc(Cl)cc1Cl [Compound 1, 2,4-dichloro-N-(3,5-dichloro-4-(quinolin-3-yloxy)phenyl)benzenesulfonamide]
- maximal transcriptional activation of reporter genes (PPARγ): approximately 30%
- lowers blood glucose levels (rodents; 0.3 mg/kg dose): over 30%
- total weight gain, heart weight gain, lung weight gain (rodents; compared with rosiglitazone administration): less total weight gain, heart weight gain, and lung weight gain
- Adipocyte differentiation [1]: not enhanced
- pharmacokinetic and pharmacodynamic properties (T2DM patients; Phase 1 studies (4 studies)): favorable pharmacokinetic and pharmacodynamic properties
- tolerability (T2DM patients; Phase 2a, multicenter, double blind, placebo controlled, T2DM patients): generally well tolerated

Compound: O=S(=O)(Nc1cc(Cl)c(Oc2cnc3ccccc3c2)c(Cl)c1)c1cccs1 [Compound 15, N-(3,5-dichloro-4-(quinolin-3-yloxy)phenyl)thiophene-2-sulfonamide]
- EC50 (nM) n=3 [2]: no activity

Compound: CN(CCOc1ccc(CC2SC(=O)NC2=O)cc1)c1ccccn1 (stereo not drawn) [rosiglitazone]
- Adipocyte differentiation [1]: significant induction

Compound: N-(3,5-dichloro-4-(quinolin-3-yloxy)phenyl)-thiophene-2-carboxamide [Compound 7]
- EC50 (nM) n=3 [2]: no activity

From paper PMC5537074 (Journal of medicinal chemistry, 2017)
